In BindingDB's records for doi:10.1021/jm00069a011 (Boehringer Mannheim, 1993):
pIC50: −log10 of the molar value.

Molecular target: T1, Gag-Pol polyprotein [588-1027]/[588-1147] (Human immunodeficiency virus 1, UniProt P04585)
T1 construct: 588-1027; 588-1147
Assay: HIV-1 RT Assay

SMILES	pIC50	pIC50 (pH 7.7, 37 °C)
O=C1c2ncccc2C2(c3ccccc3)SCCN12 (stereo not drawn) [2-phenyl-3-thia-6,9-diazatricyclo[6.4.0.0^{2,6}]dodeca-1(12),8,10-trien-7-one]	< 4.00	
O=C1c2cnccc2C2(c3ccccc3)SCCN12 (stereo not drawn) [2-phenyl-3-thia-6,10-diazatricyclo[6.4.0.0^{2,6}]dodeca-1(12),8,10-trien-7-one]	< 4.00	
O=C1c2ccccc2C2(c3ccccc3)Sc3ccccc3N12 (stereo not drawn) [9-phenyl-8-thia-1-azatetracyclo[7.7.0.0^{2,7}.0^{10,15}]hexadeca-2,4,6,10,12,14-hexaen-16-one]	4.40	
O=C1c2ccccc2C2(c3ccc[nH]3)SCCN12 (stereo not drawn) [9b-(1H-pyrrol-2-yl)-2H,3H,5H,9bH-isoindolo[1,2-b][1,3]thiazol-5-one]		< 4.00
COc1ccc(C23SCCN2C(=O)c2ccccc23)cc1 (stereo not drawn) [9b-(4-methoxyphenyl)-2H,3H,5H,9bH-isoindolo[1,2-b][1,3]thiazol-5-one]		< 4.52
O=C1c2ccccc2C2(c3ccncc3)SCCN12 (stereo not drawn) [9b-(pyridin-4-yl)-2H,3H,5H,9bH-isoindolo[1,2-b][1,3]thiazol-5-one]	< 4.52	
O=C1c2ccccc2C2(c3ccccc3)NCCN12 (stereo not drawn) [9b-phenyl-1H,2H,3H,5H,9bH-imidazolidino[2,1-a]isoindol-5-one]	< 4.00	
O=C1c2ccccc2C2(c3ccccc3)N1CCS2(=O)=O (stereo not drawn) [9b-phenyl-2H,3H,5H,9bH-1,4000000-isoindolo[1,2-b][1,3]thiazole-1,1,5-trione]	< 5.00	
O=C1c2ccccc2C2(c3ccccc3)NCCCN12 (stereo not drawn) [10b-phenyl-1H,2H,3H,4H,6H,10bH-pyrimido[2,1-a]isoindol-6-one]	< 5.00	
O=C1c2c(ccc3ccccc23)C2(c3ccccc3)SCCN12 (stereo not drawn) [11-phenyl-12-thia-15-azatetracyclo[8.6.0.0^{2,7}.0^{11,15}]hexadeca-1,3,5,7,9-pentaen-16-one]	< 4.00	
C[C@@H]1CN2C(=O)c3ccccc3[C@@]2(c2ccccc2)O1 [(2R,9bR)-2-methyl-9b-phenyl-2H,3H,5H,9bH-isoindolo[1,2-b][1,3]oxazol-5-one]	4.42	
C[C@H]1CN2C(=O)c3ccccc3[C@@]2(c2ccccc2)O1 [(2S,9bR)-2-methyl-9b-phenyl-2H,3H,5H,9bH-isoindolo[1,2-b][1,3]oxazol-5-one]	< 4.00	
O=C(O)[C@H]1CSC2(c3ccccc3)c3ccccc3C(=O)N12 (stereo partly drawn) [(3S)-5-oxo-9b-phenyl-2H,3H,5H,9bH-isoindolo[1,2-b][1,3]thiazole-3-carboxylic acid]	< 4.00	
